According to the NIST ThermoML archive (doi:10.1021/je3013205):
Numbers after ± are expanded uncertainties.

Details: 101 kPa, Liquid, Vibrating tube method

Row | Structure (SMILES) | mass density (283.15 K) [kg/m3] | mass density (293.15 K) [kg/m3] | mass density (303.15 K) [kg/m3] | mass density (313.15 K) [kg/m3] | mass density (323.15 K) [kg/m3] | mass density (333.15 K) [kg/m3] | mass density (343.15 K) [kg/m3]
1 | OCCO [1,2-ethanediol] | 1119.29 ± 0.33 | 1112.37 ± 0.32 | 1105.39 ± 0.31 | 1098.34 ± 0.31 | 1091.21 ± 0.3 | 1083.99 ± 0.3 | 1076.65 ± 0.29
2 | NCCOCCO [2-(2-aminoethoxy)ethanol] | 1063.9 ± 0.97 | 1055.86 ± 0.95 | 1047.8 ± 0.94 | 1039.73 ± 0.92 | 1031.63 ± 0.9 | 1023.46 ± 0.89 | 1015.24 ± 0.87
3 | NCCO [2-aminoethan-1-ol] | 1024.11 ± 0.25 | 1016.23 ± 0.24 | 1008.32 ± 0.24 | 1000.37 ± 0.23 | 992.364 ± 0.23 | 984.301 ± 0.23 | 976.153 ± 0.23

Other lines, results leading:

Row | mass density (283.15 K) [kg/m3] | mass density (293.15 K) [kg/m3] | mass density (303.15 K) [kg/m3] | mass density (313.15 K) [kg/m3] | mass density (323.15 K) [kg/m3] | mass density (333.15 K) [kg/m3] | mass density (343.15 K) [kg/m3] | Structure (SMILES)
4 | 801.254 ± 0.14 | 791.866 ± 0.14 | 782.43 ± 0.15 | 772.902 ± 0.15 | 763.244 ± 0.15 | 753.389 ± 0.16 |  | CO [methanol]
5 | 794.005 ± 0.12 | 785.764 ± 0.13 | 777.284 ± 0.13 | 768.476 ± 0.13 | 759.309 ± 0.14 | 749.679 ± 0.14 | 739.528 ± 0.14 | CC(C)O [propan-2-ol]
